pIC50, pKi: −log10 of the molar value. In brackets after ≈: the same amount, converted by molar mass. Where two headings read alike, the source gives them in different places.
How the values were obtained:
[1] = biological target: Human FXIa (Homo sapiens (Human), UniProt P03951); test: Determination of the % inhibition / IC50 for FXIa; format: biochemical; conditions: for inhibition at 40 µM: 40 μM test compound, read-out: % Inhibition @ 40 μM (human FXIa); for pIC50: 25° C., substrate Z-Gly-Pro-Arg-AFC
Experimental: FXIa inhibitory activity in vitro was determined using standard published methods (see e.g. Johansen et al., Int. J. Tiss. Reac. 1986, 8, 185; Shori et al., Biochem. Pharmacol., 1992, 43, 1209; Sturzebecher et al., Biol. Chem. Hoppe-Seyler, 1992, 373, 1025). […]

[2] = Predicted plasma clearance (Clp), well-stirred model, human; format: in vitro ADME; conditions: percentage of hepatic blood flow
[3] = Predicted plasma clearance (Clp), well-stirred model, rat; format: in vitro ADME; conditions: percentage of hepatic blood flow
[4] = biological target: Human Factor XIIa (Homo sapiens (Human), UniProt P00748); test: Factor XIIa inhibitory activity in vitro; format: biochemical; conditions: 25° C., substrate H-DPro-Phe-Arg-AFC; read-out: IC50 (human FXIIa)
Experimental: (§1) Human Factor XIIa (Enzyme Research Laboratories) was incubated at 25° C. with the fluorogenic substrate H-DPro-Phe-Arg-AFC and various concentrations of the test compound. Residual enzyme activity (initial rate of reaction) was determined by measuring the change in […] at 410 nm and the IC50 value for the test compound was determined.

[5] = Plasma protein binding (PPB), rapid equilibrium dialysis, rat plasma; format: in vitro ADME; conditions: 5 μM test compound, dialysis 5 hrs at 37° C.
[6] = Solubility in water and 0.1N HCl (aq); format: physicochemical; conditions: thermodynamic from solid, incubated at 1 mg/mL, 37° C.
Experimental: Solubility was determined in water and 0.1N HCl (aq). Test compounds were incubated at 1 mg/mL for 24 hrs at 37° C. on a shaking platform (500 rpm). Samples were taken at 1, 4 and 24 hrs and centrifuged at 15,000 g for 10 min. Test compound concentration in the supernatant was determined by LCMS against a standard curve.

[7] = Intrinsic clearance in human liver microsomes; format: in vitro ADME; conditions: human liver microsomes 0.5 mg/mL, 5 μM test compound, 37° C.; read-out: Human liver microsome (Clint μL/min/mg protein)
Experimental: (§2) Rat or human liver microsomes (0.5 mg/mL; Corning) were incubated with 5 μM test compound at 37° C. on a shaking platform (150 rpm). Samples were taken at 0, 6, 12, 18, 24 and 60 min and test compound concentrations were determined by LCMS against a calibration curve.

[8] = biological target: Human KLK1 (Homo sapiens (Human), UniProt P06870); test: Determination of the IC50 for KLK1; format: biochemical; conditions: 25° C., substrate H-DVal-Leu-Arg-AFC
Experimental: as §1, with “KLK1 (Callbiochem)” for “Factor XIIa (Enzyme Research Laboratories)”, “H-DVal-Leu-Arg-AFC” for “H-DPro-Phe-Arg-AFC”

[9] = biological target: plasmin (Homo sapiens (Human), UniProt P00747); test: Determination of enzyme selectivity: plasmin; format: biochemical; conditions: substrate at Km concentration
Experimental: (§3) Human serine protease enzymes plasmin, thrombin and trypsin were assayed for enzymatic activity using an appropriate fluorogenic substrate. Protease activity was measured by monitoring the accumulation of liberated fluorescence from the substrate over 5 minutes. The linear rate of fluorescence increase per minute was expressed as percentage (%) activity. The Km for the cleavage of each substrate was determined by standard transformation of the Michaelis-Menten equation.

[10] = Plasma protein binding (PPB), rapid equilibrium dialysis, human plasma; format: in vitro ADME; conditions: 5 μM test compound, dialysis 5 hrs at 37° C.
[11] = biological target: thrombin (Homo sapiens (Human), UniProt P00734); test: Determination of enzyme selectivity: thrombin; format: biochemical; conditions: substrate at Km concentration
Experimental: as §3

[12] = In vitro permeability, Caco-2 model for oral absorption; format: in vitro ADME; conditions: human, apical to basolateral, 50 μM test compound, 37° C.
Summary of the method: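 Caco-2 monolayers grown on collagen inserts for 3 days, with 50 μM compound added apically and incubated 1 hour at 37° C with shaking. Apical-to-basolateral transport measured by LCMS in both compartments. Monolayer integrity checked by TEER before and after, and by Lucifer Yellow flux.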

[13] = biological target: T1, Human plasma kallikrein (Homo sapiens (Human), UniProt P03952); test: Determination of the IC50 for plasma kallikrein; format: biochemical; conditions: 25° C., substrate H-DPro-Phe-Arg-AFC; read-out: IC50 (human PKal)
Experimental: as §1, with “plasma kallikrein (Protogen)” for “Factor XIIa (Enzyme Research Laboratories)”

[14] = Intrinsic clearance in rat liver microsomes; format: in vitro ADME; conditions: rat liver microsomes 0.5 mg/mL, 5 μM test compound, 37° C.; read-out: rat liver microsome (Clint μL/min/mg protein)
Experimental: as §2

[15] = biological target: trypsin; test: Determination of enzyme selectivity: trypsin; format: biochemical, human; conditions: substrate at Km concentration
Experimental: as §3

[16] = biological target: T1, Human plasma kallikrein; test: Determination of the Ki for plasma kallikrein (mixed-model inhibition); format: biochemical; conditions: for pKi: human plasma kallikrein, mixed-model inhibition equation; for Alpha: parameter of the mixed-model equation indicating mechanism of inhibition
[17] = Pharmacokinetics following a single oral dose in male Sprague-Dawley rats; format: in vivo; conditions: rat, single po dose (nominal 10 mg/kg; actual dose per row in column Dose po), 10% DMSO/10% cremophor/80% SWFI, plasma
Experimental: Pharmacokinetic studies of the compounds in Table 13 were performed to assess the pharmacokinetics following a single oral dose in male Sprague-Dawley rats. Two rats were given a single po dose of 5 mL/kg of a nominal 2 mg/mL (10 mg/kg) composition of test compound in vehicle. Following dosing, blood samples were collected over a period of 24 hours. Sample times were 5, 15 and 30 minutes then 1, 2, 4, 6, 8 and 12 hours. Following collection, blood samples were centrifuged and the plasma fraction analysed for concentration of test compound by LCMS.

[18] = simulated gastric fluid, 0.1N HCl (aq), read-out: Solubility 0.1N HCl (aq)
[19] = water, read-out: Solubility Water

Sequence of Human KLK1 (P06870 25-262): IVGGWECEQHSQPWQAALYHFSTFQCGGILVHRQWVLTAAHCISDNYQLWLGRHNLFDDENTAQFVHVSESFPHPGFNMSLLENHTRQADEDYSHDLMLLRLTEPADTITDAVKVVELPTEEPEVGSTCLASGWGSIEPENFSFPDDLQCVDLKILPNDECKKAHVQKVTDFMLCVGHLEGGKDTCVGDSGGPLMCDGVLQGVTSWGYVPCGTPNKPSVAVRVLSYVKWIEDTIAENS
Sequence of Human Factor XIIa (P00748 373-615): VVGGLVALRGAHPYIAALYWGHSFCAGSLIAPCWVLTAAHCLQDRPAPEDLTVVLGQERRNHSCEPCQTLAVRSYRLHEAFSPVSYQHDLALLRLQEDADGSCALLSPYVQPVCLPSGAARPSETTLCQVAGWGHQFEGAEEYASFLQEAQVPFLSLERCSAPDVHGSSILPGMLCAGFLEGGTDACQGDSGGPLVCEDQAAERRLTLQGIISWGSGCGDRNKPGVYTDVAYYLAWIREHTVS
Sequence of Human FXIa (P03951 388-625): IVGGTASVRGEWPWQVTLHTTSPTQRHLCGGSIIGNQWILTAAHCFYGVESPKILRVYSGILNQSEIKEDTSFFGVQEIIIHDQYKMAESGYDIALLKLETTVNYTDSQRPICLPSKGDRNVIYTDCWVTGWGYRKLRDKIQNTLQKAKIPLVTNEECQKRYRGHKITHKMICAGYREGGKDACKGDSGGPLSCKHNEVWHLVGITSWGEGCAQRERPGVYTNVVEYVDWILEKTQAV
Sequence of Human FXIa (P03951 19-387): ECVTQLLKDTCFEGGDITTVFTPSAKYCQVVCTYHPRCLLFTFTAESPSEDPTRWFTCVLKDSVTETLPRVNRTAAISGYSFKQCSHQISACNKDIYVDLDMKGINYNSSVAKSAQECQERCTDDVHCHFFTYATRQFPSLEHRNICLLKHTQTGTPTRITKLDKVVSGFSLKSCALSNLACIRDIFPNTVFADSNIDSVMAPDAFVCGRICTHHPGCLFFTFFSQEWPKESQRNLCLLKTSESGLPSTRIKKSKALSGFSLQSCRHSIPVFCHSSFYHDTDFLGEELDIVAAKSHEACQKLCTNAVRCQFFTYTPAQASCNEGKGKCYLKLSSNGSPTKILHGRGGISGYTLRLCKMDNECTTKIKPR
Sequence of plasmin (P00747 581-810): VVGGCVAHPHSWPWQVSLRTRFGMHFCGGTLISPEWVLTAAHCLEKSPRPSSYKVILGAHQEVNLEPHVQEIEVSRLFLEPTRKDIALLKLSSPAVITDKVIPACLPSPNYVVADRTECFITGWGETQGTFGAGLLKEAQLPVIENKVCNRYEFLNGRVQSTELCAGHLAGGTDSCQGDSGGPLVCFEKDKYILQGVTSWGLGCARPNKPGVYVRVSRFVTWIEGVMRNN
Sequence of plasmin (P00747 97-580): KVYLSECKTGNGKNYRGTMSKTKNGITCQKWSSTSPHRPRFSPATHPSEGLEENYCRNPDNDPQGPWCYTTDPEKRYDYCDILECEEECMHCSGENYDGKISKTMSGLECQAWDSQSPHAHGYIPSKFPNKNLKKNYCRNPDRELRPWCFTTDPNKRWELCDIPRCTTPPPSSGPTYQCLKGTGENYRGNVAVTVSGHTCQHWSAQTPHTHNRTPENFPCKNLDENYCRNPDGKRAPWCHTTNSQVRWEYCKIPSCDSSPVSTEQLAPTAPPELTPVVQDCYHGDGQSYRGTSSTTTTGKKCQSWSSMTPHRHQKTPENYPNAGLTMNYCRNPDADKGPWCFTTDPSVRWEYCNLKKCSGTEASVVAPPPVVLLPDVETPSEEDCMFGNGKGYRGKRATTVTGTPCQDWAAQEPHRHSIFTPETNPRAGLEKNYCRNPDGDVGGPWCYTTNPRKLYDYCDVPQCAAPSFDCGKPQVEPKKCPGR
T1 sequence (P03952 391-638): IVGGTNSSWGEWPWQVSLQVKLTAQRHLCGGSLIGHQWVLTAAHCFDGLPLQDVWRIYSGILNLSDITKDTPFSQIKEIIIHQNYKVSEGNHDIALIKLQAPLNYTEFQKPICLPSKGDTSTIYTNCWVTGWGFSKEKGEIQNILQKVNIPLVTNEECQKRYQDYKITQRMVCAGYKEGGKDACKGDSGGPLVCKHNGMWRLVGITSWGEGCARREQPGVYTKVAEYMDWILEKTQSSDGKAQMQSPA
T1 sequence (P03952 20-390): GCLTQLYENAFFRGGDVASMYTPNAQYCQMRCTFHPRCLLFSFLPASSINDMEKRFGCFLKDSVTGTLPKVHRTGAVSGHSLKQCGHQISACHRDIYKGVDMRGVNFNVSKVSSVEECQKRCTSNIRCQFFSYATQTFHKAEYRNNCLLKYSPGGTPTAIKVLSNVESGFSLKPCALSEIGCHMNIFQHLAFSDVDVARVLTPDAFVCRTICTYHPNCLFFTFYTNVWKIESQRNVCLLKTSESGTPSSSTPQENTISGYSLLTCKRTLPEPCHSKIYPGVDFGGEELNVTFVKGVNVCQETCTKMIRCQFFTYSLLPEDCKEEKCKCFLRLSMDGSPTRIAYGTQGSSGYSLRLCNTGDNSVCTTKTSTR

Row | Compound | inhibition at 40 µM [1] [%] | pIC50 [1] | Predicted in vivo human Clp (% LBF) [2] [% LBF] | Predicted in vivo rat Clp (% LBF) [3] [% LBF] | pIC50 [4] | fraction unbound at 5 h, 5 μM [5] | solubility [6, 18] [µg/mL] | solubility [6, 19] [µg/mL] | microsomal CLint at 5 μM [7] [µL/min/mg] | pIC50 [8] | pIC50 [9] | fraction unbound at 5 h, 5 μM [10] | pIC50 [11] | Papp at 1 h, 50 μM [12] [×10⁻⁶ cm/s] | pIC50 [13] | microsomal CLint at 5 μM [14] [µL/min/mg] | pIC50 [15] | pKi [16] | Alpha [16] | Cmax [17] [ng/mL] | further results
1 | COc1ccc(F)c(CNC(=O)c2cn(Cc3ccc(Cn4ccccc4=O)cc3)nc2N)c1F [Example 35, 3-amino-N-[(2,6-difluoro-3-methoxyphenyl)methyl]-1-({4-[(2-oxopyridin-1-yl)methyl]phenyl}methyl)pyrazole-4-carboxamide] | 5 | < 4.40 | 7 | 1 | < 4.40 | 0.01 | 40 (≈ 83.4 µM) | 20 (≈ 41.7 µM) | 24 | < 4.40 | < 4.40 | 0.04 | < 4.40 | 7 | 8.77 | 15 | < 4.40 | – | – | – | –
2 | COCc1nn(Cc2ccc(Cn3ccccc3=O)cc2)cc1C(=O)NCc1cc(Cl)ccc1-n1cnnn1 [Example 72, N-{[5-chloro-2-(1,2,3,4-tetrazol-1-yl)phenyl]methyl}-3-(methoxymethyl)-1-({4-[(2-oxopyridin-1-yl)methyl]phenyl}methyl)pyrazole-4-carboxamide] | – | 4.97 | 14 | 12 | < 5.40 | 0.06 | 46 (≈ 84.4 µM) | 46 (≈ 84.4 µM) | 32 | < 5.40 | < 4.40 | 0.1 | 4.41 | 6 | 9.15 | 72 | < 4.40 | 9.80 | 6.0 | – | inhibition at 12.7 µM ([1]; 12.7 μM test compound): 53%
3 | COc1ccnc(CNC(=O)c2cn(Cc3ccc(Cn4ccccc4=O)cc3)nc2C(F)(F)F)c1F [Example 6, N-[(3-fluoro-4-methoxypyridin-2-yl)methyl]-1-({4-[(2-oxopyridin-1-yl)methyl]phenyl}methyl)-3-(trifluoromethyl)pyrazole-4-carboxamide] | 2 | < 4.40 | 24 | 6 | < 5.40 | 0.05 | – | – | 42 | < 5.40 | < 4.40 | 0.13 | < 4.40 | 17 | 8.49 | 30 | < 4.40 | – | – | 1800 | Tmax [17]: 30 min
4 | COCc1nn(Cc2ccc(Cn3cc(F)ccc3=O)cc2)cc1C(=O)NCc1nccc(OC)c1F [Example 30, 1-({4-[(5-fluoro-2-oxopyridin-1-yl)methyl]phenyl}methyl)-N-[(3-fluoro-4-methoxypyridin-2-yl)methyl]-3-(methoxymethyl)pyrazole-4-carboxamide] | 7 | < 4.40 | 12 | 1 | < 4.40 | 0.03 | 940 (≈ 1840 µM) | 290 (≈ 569 µM) | 20 | < 4.40 | < 4.40 | 0.18 | < 4.40 | 24 | 8.17 | 22 | < 4.40 | – | – | 756 | Tmax [17]: 38 min
5 | COCc1nn(Cc2ccc(Cn3ccccc3=O)cc2)cc1C(=O)NCc1cc(OC)ccc1-n1cnnn1 [Example 40, N-{[5-methoxy-2-(1,2,3,4-tetrazol-1-yl)phenyl]methyl}-3-(methoxymethyl)-1-({4-[(2-oxopyridin-1-yl)methyl]phenyl}methyl)pyrazole-4-carboxamide] | 20 | < 4.40 | 17 | 14 | < 4.40 | 0.13 | – | – | 22 | < 4.40 | < 4.40 | 0.24 | < 4.40 | 5 | 9.40 | 47 | < 4.40 | 10.00 | 2.2 | – | –
